# Measured values as given in patent publication US20250255977A1, “EPSILON-POLY-L-LYSINE-BASED DRUG CONJUGATE, INTERMEDIATE THEREOF, AND APPLICATION THEREOF” (SHANGHAI BEST-LINK BIOSCIENCE, LLC, priority 2021, published 2025).
# Like-named read-outs stand apart in the source and are kept apart here.
# Assays:
# [1] = BALB/C nude, mouse, in vivo, iv, 10 mg/kg
# Method: Mice were killed at set time points. Plasma was taken after blood centrifugation. Tumor tissues were isolated, temporarily stored in dry ice and then transferred to −80° C. freezer for later use.
# Tumor tissues were thawed, weighed and then added a certain amount of 50/50 methanol and water. The mixture was homogenized on the handheld homogenizer with ice bath, centrifuged at 4° C. 6000×g for 10 min, and the supernatant was collected.
# 30 μL of plasma or homogenized tumor supernatant were taken and added 200 μL of acetonitrile with internal standard (tolbutamide, 50 ng/mL). The mixture was vortexed for 5 min and centrifuged at 6000×g for 10 min. 75 μL of the supernatant was transferred to a 96-well plate pre-added with 75 μL of water and shaked at 500 rpm for 5 min. 2 μL of sample was injected for LC MS/MS analysis.
# Column: ACQUITY UPLC BEH C18 (2.1×50 mm, 1.7 μm)
# Phase A: 0.1% formic acid/water, Phase B: 0.1% formic acid/acetonitrile
# HepG2 tumors = experiment: In vivo efficacy in HepG2 xenograft CDX mouse model; set-up: species or system BALB/C nude mice; details: Day 33
# Method: Biological Assessment Example F: […] The tumor volume was calculated as: […] The evaluation criteria are as follows: […]
# [2] = tested on: H69 small cell lung cancer; experiment: Efficacy on subcutaneous transplanted 1200 mm^3 H69 small cell lung cancer model; format: in vivo, BALB/C nude mice; details: topotecan MTD 2 mg/kg (free base) once a day for five days; 1200 mm^3 tumors
# Source text: Biological Assessment Example I: Comparison of Efficacy of 101B00G and Topotecan on Subcutaneous Transplanted 1200 mm^3 H69 Small Cell Lung Cancer Model
smiles,measurement,setting,value
CCc1c2c(nc3ccc(OC(=O)N4CCC(N5CCCCC5)CC4)cc13)-c1cc3c(c(=O)n1C2)COC(=O)[C@]3(O)CC [irinotecan],"Plasma concentration of released drug, average value",[1]; 0.083 h,865
same,"Plasma concentration of released drug, average value",[1]; 0.5 h,385
same,"Plasma concentration of released drug, average value",[1]; 1 h,407
same,"Plasma concentration of released drug, average value",[1]; 3 h,172.6
same,"Plasma concentration of released drug, average value",[1]; 8 h,27.7
same,TGI (%) / tumor inhibition rate,HepG2 tumors,−49%
CC[C@@]1(O)C(=O)OCc2c1cc1n(c2=O)Cc2cc3c(CN(C)C)c(O)ccc3nc2-1 [topotecan],Increase of tumor volume on Day 22 compared with the initial value,[2],22%
